Several values for one entry are separate records, joined by “and”; a condition that tells them apart may be missing. Identical values can stand only once. Toxic doses and inconclusive results are not listed. Rule for the calls: active = survival T/C of 150% or more; inactive = T/C below 125% in these data.
Test system: P388 leukemia ip, CD2F1 mice, survival T/C
Test: NCI In Vivo Anticancer Drug Screen. Data for tumor model P388 Leukemia (intraperitoneal) in CD2F1 (CDF1) mice
Details: endpoint: median survival time, higher = longer survival
In short: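 Mice carrying the transplanted tumor received test compound or vehicle. Survival was recorded in each group, and the value is the treated-group measurement divided by that of the vehicle-treated control group.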

[1] = dose: 50.0 mg/kg/injection, schedule: Q01DX005 (ip), vehicle: saline with Tween-80
[2] = dose: 100.0 mg/kg/injection, schedule: Q01DX005 (ip), vehicle: saline with Tween-80
[3] = dose: 200.0 mg/kg/injection, schedule: Q01DX005 (ip), vehicle: saline with Tween-80
[4] = dose: 60.0 mg/kg/injection, schedule: Q01DX005 (ip), vehicle: saline with Tween-80
[5] = dose: 120.0 mg/kg/injection, schedule: Q01DX005 (ip), vehicle: saline with Tween-80
[6] = dose: 240.0 mg/kg/injection, schedule: Q01DX005 (ip), vehicle: saline with Tween-80

Measured: T/C

CC(C)CC1NC(=O)C2N=C(OC2C)C2CSSCC(NC(=O)c3csc1n3)C1=NC(C(=O)NC(CC(C)C)c3nc(cs3)C(=O)N2)C(C)O1 (centres undefined)
inactive: dose: 0.2 mg/kg/injection, schedule: Q01DX005 (ip), vehicle: DMSO 97 % of control | dose: 0.4 mg/kg/injection, schedule: Q01DX005 (ip), vehicle: DMSO 96 % of control | dose: 0.8 mg/kg/injection, schedule: Q01DX005 (ip), vehicle: DMSO 90 % of control | dose: 1.5 mg/kg/injection, schedule: Q01DX005 (ip), vehicle: DMSO 97 % of control

CC/C(=N/N(C)C)C(=O)O
inactive: dose: 60.0 mg/kg/injection, schedule: Q01DX005 (ip), vehicle: saline 102 % of control | dose: 120.0 mg/kg/injection, schedule: Q01DX005 (ip), vehicle: saline 105 % of control | dose: 240.0 mg/kg/injection, schedule: Q01DX005 (ip), vehicle: saline 98 % of control

COc1ccc(Cc2ccc(OC)c(OC)c2)cc1OC
inactive: dose: 25.0 mg/kg/injection, schedule: Q04DX003 (ip), vehicle: saline with Tween-80 99 % of control | dose: 50.0 mg/kg/injection, schedule: Q04DX003 (ip), vehicle: saline with Tween-80 99 % of control | dose: 100.0 mg/kg/injection, schedule: Q04DX003 (ip), vehicle: saline with Tween-80 113 % of control | dose: 200.0 mg/kg/injection, schedule: Q04DX003 (ip), vehicle: saline with Tween-80 109 % of control | dose: 400.0 mg/kg/injection, schedule: Q04DX003 (ip), vehicle: saline with Tween-80 120 % of control

C/C(=N\NC(=S)Nc1ccc(C(=O)O)cc1C)c1ccccn1
inactive: [1] 114 % of control | [2] 121 % of control

Cc1ccc(C)c(C[n+]2ccccc2C2(C)OCCO2)c1
inactive: [1] 101 % of control | [2] 103 % of control | [3] 100 % of control

CCOC(=O)/C=C/C(=O)NNS(=O)(=O)CCC(NC(=O)OCc1ccccc1)C(=O)OCc1ccccc1 (centres undefined)
inactive: dose: 12.5 mg/kg/injection, schedule: Q01DX009 (ip), vehicle: other 92 % of control | dose: 25.0 mg/kg/injection, schedule: Q01DX009 (ip), vehicle: other 101 % of control | dose: 50.0 mg/kg/injection, schedule: Q01DX009 (ip), vehicle: other 104 % of control | dose: 100.0 mg/kg/injection, schedule: Q01DX009 (ip), vehicle: other 93 % of control | dose: 200.0 mg/kg/injection, schedule: Q01DX009 (ip), vehicle: other 86 % of control

Cc1cccc(CC(O)c2ccc(C=O)cc2)n1 (centres undefined)
inactive: [4] 105 % of control | [5] 98 % of control | [6] 98 % of control

CC(=O)NC(Cc1ccsc1)C(=O)O (centres undefined)
inactive: dose: 50.0 mg/kg/injection, schedule: Q01DX009 (ip), vehicle: saline 108 % of control | dose: 100.0 mg/kg/injection, schedule: Q01DX009 (ip), vehicle: saline 92 % of control | dose: 200.0 mg/kg/injection, schedule: Q01DX009 (ip), vehicle: saline 99 % of control

CN1CC2(CO)C(c3ccccn3)N(C)C(c3ccccn3)C(CO)(C1)C2O (centres undefined)
inactive: [4] 107 % of control | [5] 104 % of control

Cc1cc(N2CCOCC2)ccc1N=Nc1nc2ccccc2s1
inactive: dose: 100.0 mg/kg/injection, schedule: Q01DX001 (ip), vehicle: saline 89 % of control | dose: 200.0 mg/kg/injection, schedule: Q01DX001 (ip), vehicle: saline 88 % of control

CS/C(=N/N=C/c1ccc2ccccc2n1)SS/C(=N/N=C\c1ccc2ccccc2n1)SC
inactive: [1] 88 % of control | [2] 91 % of control | [3] 104 % of control

COc1ccc2c(c1)C(CCN(C)C)(CCN(C)C)C(=O)CC2
inactive: dose: 12.5 mg/kg/injection, schedule: Q01DX005 (ip), vehicle: saline 94 % of control | dose: 25.0 mg/kg/injection, schedule: Q01DX005 (ip), vehicle: saline 95 % of control | dose: 50.0 mg/kg/injection, schedule: Q01DX005 (ip), vehicle: saline 104 % of control and 94 % of control

CC1C2=C(CC(C)(C)CC2=O)OC2=C1C(=O)CC(C)(C)C2
inactive: dose: 50.0 mg/kg/injection, schedule: Q01DX009 (ip), vehicle: saline with Tween-80 103 % of control | dose: 100.0 mg/kg/injection, schedule: Q01DX009 (ip), vehicle: saline with Tween-80 104 % of control | dose: 200.0 mg/kg/injection, schedule: Q01DX009 (ip), vehicle: saline with Tween-80 99 % of control

Cn1cnc2cc3c(cc2c1=O)nc1n3CCOC1
inactive: dose: 100.0 mg/kg/injection, schedule: Q04DX003 (ip), vehicle: Klucel (hydroxypropylcellulose) (HPC) 103 % of control | dose: 200.0 mg/kg/injection, schedule: Q04DX003 (ip), vehicle: Klucel (hydroxypropylcellulose) (HPC) 100 % of control | dose: 400.0 mg/kg/injection, schedule: Q04DX003 (ip), vehicle: Klucel (hydroxypropylcellulose) (HPC) 93 % of control

O=C=Nc1ccc(Cc2ccc(N=C=O)cc2)cc1
inactive: dose: 100.0 mg/kg/injection, schedule: Q01DX009 (ip), vehicle: Klucel (hydroxypropylcellulose) (HPC) 103 % of control | dose: 200.0 mg/kg/injection, schedule: Q01DX009 (ip), vehicle: Klucel (hydroxypropylcellulose) (HPC) 98 % of control | dose: 400.0 mg/kg/injection, schedule: Q01DX009 (ip), vehicle: Klucel (hydroxypropylcellulose) (HPC) 93 % of control

O=c1nc2n(c3ncccc13)CC=NN2
inactive: [4] 99 % of control | [5] 100 % of control

CP12(OC(C(F)(F)F)(C(F)(F)F)c3ccccc31)OC(C(F)(F)F)(C(F)(F)F)c1ccccc12
inactive: dose: 100.0 mg/kg/injection, schedule: Q04DX002 (ip), vehicle: Klucel (hydroxypropylcellulose) (HPC) 100 % of control | dose: 200.0 mg/kg/injection, schedule: Q04DX002 (ip), vehicle: Klucel (hydroxypropylcellulose) (HPC) 101 % of control | dose: 400.0 mg/kg/injection, schedule: Q04DX002 (ip), vehicle: Klucel (hydroxypropylcellulose) (HPC) 96 % of control

O=c1c(Br)cc2c(-c3ccccc3)c3cc(Br)c(O)c(Br)c3oc-2c1Br
inactive: [4] 97 % of control | [5] 97 % of control | [6] 110 % of control

CN1NC(c2ccc(N(C)C)cc2)(c2ccc(N(C)C)cc2)c2ccc(N(C)C)cc2C1=O
inactive: dose: 100.0 mg/kg/injection, schedule: Q04DX002 (ip), vehicle: saline with Tween-80 90 % of control | dose: 200.0 mg/kg/injection, schedule: Q04DX002 (ip), vehicle: saline with Tween-80 88 % of control | dose: 400.0 mg/kg/injection, schedule: Q04DX002 (ip), vehicle: saline with Tween-80 88 % of control

Cc1cc2c(cc1C)NC1=C(N2)OC(c2ccc(Cl)cc2)C1=O (centres undefined)
inactive: [4] 92 % of control | [5] 89 % of control | [6] 92 % of control

O=c1c2ccccc2n(-c2ccccc2)c2ccccc12
inactive: dose: 50.0 mg/kg/injection, schedule: Q01DX005 (ip), vehicle: Klucel (hydroxypropylcellulose) (HPC) 100 % of control | dose: 100.0 mg/kg/injection, schedule: Q01DX005 (ip), vehicle: Klucel (hydroxypropylcellulose) (HPC) 100 % of control | dose: 200.0 mg/kg/injection, schedule: Q01DX005 (ip), vehicle: Klucel (hydroxypropylcellulose) (HPC) 99 % of control

— PubChem BioAssay AID330 (DTP/NCI, 2004)
